We go through nine compounds from patent US9650339B2, “Inhibitors of histone demethylases” (Gilead Sciences, Inc., priority 2013, dated 2017).

Some results are limits rather than exact numbers.

The target of assay [1] is T1, KDM5B (Homo sapiens, UniProt Q9UGL1).
T1 construct: (a.a. 1-752); host or cells: U2OS
T1 sequence (Q9UGL1 1-752): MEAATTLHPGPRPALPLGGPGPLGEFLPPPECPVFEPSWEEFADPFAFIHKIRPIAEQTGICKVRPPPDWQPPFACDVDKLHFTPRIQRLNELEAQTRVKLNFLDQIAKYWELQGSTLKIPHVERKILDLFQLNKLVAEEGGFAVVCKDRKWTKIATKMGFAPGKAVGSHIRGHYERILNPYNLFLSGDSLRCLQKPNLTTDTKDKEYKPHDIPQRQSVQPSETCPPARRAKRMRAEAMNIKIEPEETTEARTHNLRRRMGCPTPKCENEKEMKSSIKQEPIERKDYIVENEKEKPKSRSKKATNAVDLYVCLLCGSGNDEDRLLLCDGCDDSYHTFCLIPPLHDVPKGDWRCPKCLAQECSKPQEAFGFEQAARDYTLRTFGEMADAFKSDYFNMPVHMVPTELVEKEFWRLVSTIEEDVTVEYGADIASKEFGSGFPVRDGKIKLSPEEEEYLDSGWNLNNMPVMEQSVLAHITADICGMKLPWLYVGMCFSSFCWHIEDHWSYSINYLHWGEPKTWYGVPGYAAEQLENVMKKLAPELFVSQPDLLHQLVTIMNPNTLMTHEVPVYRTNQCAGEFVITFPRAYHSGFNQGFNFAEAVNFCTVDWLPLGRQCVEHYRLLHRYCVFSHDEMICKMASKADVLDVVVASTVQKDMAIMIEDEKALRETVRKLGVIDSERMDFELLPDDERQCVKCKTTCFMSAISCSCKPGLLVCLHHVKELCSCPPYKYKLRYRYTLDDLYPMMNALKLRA
Kind of assay: Histone lysine demethylase immunofluorescence assay, U2OS cells transfected with KDM5B. Format: cell-based. As to conditions: U2OS cells transfected with pCMVHA KDM5B; mark detected H3K4me2; 20 hours. The essentials:
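U2OS cells were transiently transfected with HA-tagged demethylase and reseeded after 6 h into compound-containing DMEM/10% FBS for 20 h. Cells were fixed in formaldehyde and immunostained for HA and the relevant histone methyl mark, then imaged. IC50 is based on mean mark staining in HA+ transfected cells.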

Assay [2] has as its target T2, KDM3B (JMJD1B) (Homo sapiens, UniProt Q7LBC6).
T2 construct: 842-1761; host or cells: Bac (baculovirus system)
T2 sequence (Q7LBC6 842-1761): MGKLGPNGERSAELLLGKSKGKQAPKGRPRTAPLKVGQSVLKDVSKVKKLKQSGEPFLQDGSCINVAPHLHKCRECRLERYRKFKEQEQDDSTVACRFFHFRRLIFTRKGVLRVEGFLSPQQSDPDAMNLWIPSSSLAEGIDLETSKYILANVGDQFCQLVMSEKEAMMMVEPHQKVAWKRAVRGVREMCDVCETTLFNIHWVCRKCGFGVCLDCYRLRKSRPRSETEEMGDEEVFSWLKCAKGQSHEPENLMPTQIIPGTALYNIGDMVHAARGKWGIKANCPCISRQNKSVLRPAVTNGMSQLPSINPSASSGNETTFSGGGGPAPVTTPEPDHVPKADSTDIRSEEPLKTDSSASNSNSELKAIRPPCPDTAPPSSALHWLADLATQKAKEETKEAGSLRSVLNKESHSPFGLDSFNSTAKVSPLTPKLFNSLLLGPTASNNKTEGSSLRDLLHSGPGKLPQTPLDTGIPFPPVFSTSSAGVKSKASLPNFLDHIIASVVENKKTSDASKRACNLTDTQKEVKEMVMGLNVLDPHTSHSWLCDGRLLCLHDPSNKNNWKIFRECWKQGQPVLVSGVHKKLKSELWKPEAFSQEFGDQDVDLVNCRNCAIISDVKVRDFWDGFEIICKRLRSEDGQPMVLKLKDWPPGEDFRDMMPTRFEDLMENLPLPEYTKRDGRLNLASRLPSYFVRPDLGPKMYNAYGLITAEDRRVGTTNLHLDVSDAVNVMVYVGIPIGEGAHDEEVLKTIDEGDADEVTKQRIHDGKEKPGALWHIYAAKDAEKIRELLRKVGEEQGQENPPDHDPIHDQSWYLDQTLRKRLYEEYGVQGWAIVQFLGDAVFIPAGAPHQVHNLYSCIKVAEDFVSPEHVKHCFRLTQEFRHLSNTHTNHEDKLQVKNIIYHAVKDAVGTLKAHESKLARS
The experiment in a line: Histone lysine demethylase AlphaLISA assay, KDM3B. Format: biochemical. To be noted: read-out: KDM3B HDME Inhibition IC50. The essentials: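 Enzyme 10 min pre-incubation; + compound (3% DMSO soln) 10 min; + biotin-H3 methyl-Lys peptide, 25 μM L-Asc, 10 μM α-KG, RT. Read: AlphaLISA acceptor beads, then streptavidin donor beads, RT, dark.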

For `CCN(CC)CCCCNCc1cc(C2NCCCN2C)ccn1` (stereo not drawn) [Compound 68, [4-(diethylamino)butyl]({[4-(1-methyl-1,3-diazinan-2-yl)pyridin-2-yl]methyl})amine], the IC50 in assay [1] is less than 250 nM.
With `CN(C)CCNCc1ccnc(CNCCCN(C)Cc2ccccc2)c1` [Compound 18, benzyl[3-({[4-({[2-(dimethylamino)ethyl]-amino}methyl)pyridin-2-yl]methyl}-amino)propyl]-methylamine], in assay [2], the IC50 was more than 2500 nM.
Turning to `COc1ccccc1CN1CCC(NC(=O)CNCc2cc(CNC3CC3)ccn2)CC1` [Compound 20, 2-[({4-[(cyclopropylamino)-methyl]pyridin-2-yl}methyl)amino]-N-{1-[(2-methoxyphenyl)methyl]-piperidin-4-yl}acetamide], the IC50 in assay [1] is 250 to 2500 nM; in assay [2], more than 2500 nM.
As to `O=Cc1ccnc(CNCC(=O)NC2CCN(Cc3ccccc3)C2)c1` (stereo not drawn) [Compound 113, N-(1-benzylpyrrolidin-3-yl)-2-{[(4-formylpyridin-2-yl)methyl]amino}-acetamide], the IC50 in assay [1] and in assay [2] was more than 2500 nM throughout.
With `O=Cc1ccnc(CNCCCCN(Cc2ccccc2)C2CC2)c1` [Compound 109, 2-[({4-[benzyl-(cyclopropyl)amino]-butyl}amino)methyl]-pyridine-4-carbaldehyde], the figures for the IC50 in assay [1] and in assay [2] were 250 to 2500 nM and more than 2500 nM, respectively.
With `CN(C)CCCCNCc1cc(CN)ccn1` [Compound 2, [2-({[4-(dimethylamino)butyl]-amino}methyl)pyridin-4-yl]methanamine], the IC50 in assay [1] was less than 250 nM; in assay [2], more than 2500 nM.
`COC(=O)CNCc1cc(/C=N/C2CC2)ccn1` [Compound 59, methyl 2-[({4-[N-cyclopropyl-carboximidoyl]pyridin-2-yl}methyl)amino]-acetate]: the IC50 in assay [1] and in assay [2] was more than 2500 nM in each case.
Consider `CCN(CCN(C)C)C(=O)CN(Cc1cc(CNC(=O)C(F)(F)F)ccn1)C(=O)C(F)(F)F` [Compound 26, N-[(2-{[N-({[2-(dimethylamino)ethyl]-(ethyl)carbamoyl}-methyl)-2,2,2-trifluoroacetamido]-methyl}pyridin-4-yl)methyl]-2,2,2-trifIuoroacetamide], for which the IC50 in assay [1] was less than 250 nM.
Turning to `COCCNCc1ccnc(CNCCCN(C)Cc2ccccc2)c1` [Compound 19, benzyl(3-{[(4-{[(2-methoxyethyl)amino]-methyl}pyridin-2-yl)methyl]amino}-propyl)methylamine], the IC50 in assay [1] and in assay [2] was more than 2500 nM throughout.
